# Test results taken from patent US5597894A (The Louisiana State University Medical Center Foundation, priority 1995, dated 1997).
# Read-outs that look alike come from different tables or passages of the source. Positions of bridges follow the written chain, without caps; N, C: chain ends. Non-standard residues stand in square brackets, D forms with d. Residues, ends and D or L forms follow the SMILES beside them.
# Assays:
# [1] = tested on: rat pituitary cells, which express SSTR2; assay: Inhibition of growth hormone (GH) release from acutely dispersed rat pituitary cells; type: cell-based; conditions: in the presence of 1 nM GRF(1-29)NH2, 3 h at 37° C., number in brackets = samples tested
# Text: Pituitaries from adult Charles River CD male rats (Wilmington, Mass.) housed under controlled conditions (lights on from 0500-1900 hrs), were dispersed and cultured using aseptic technique as previously described with modifications (Hoefer et al., Mol. Cell Endocrinol., 35:229, (1984); Ben-Jonathan et al., i Methods Enzymol., 103:249, (1983); and Heiman et al., Endocrinology, 116:410, (1985).
# Briefly, pituitaries were removed from decapitated rats, sectioned, and then placed in a siliconized, liquid scintillation vial containing 2 ml 0.2% trypsin (Worthington Biochemicals, Freehold, N.J.) in sterile-filtered Krebs-Ringer bicarbonate buffer supplemented with 1% bovine serum albumin, 14 mM glucose, modified Eagle medium (MEM) vitamin solution and MEM amino acids (Gibco Laboratories, Grand Island, N.Y.) (KRBGA). All glassware was siliconized as described by Sayers et al., Endocrinology, 88:1063, (1971). The pituitary fragments were incubated in a water bath for 35 min at 37° C. with agitation. The vial contents were then poured into a scintillation vial containing 2 ml 0.1% DNase (Sigma Chemical Co., St. Louis, Mo.) in KRBGA and incubated for 2 min at 37° C. with agitation. After incubation the tissue was decanted into a 15 ml centrifuge tube and allowed to settle. The medium was discarded, and the pituitary sections were washed 3 times with 1 ml fresh KRBGA. The cells were dispersed in 2 ml 0.05% LBI (lima bean trypsin inhibitor, Worthington Biochemicals) by gently drawing the fragments into and expelling them out of a siliconized, fire-polished Pasteur pipette. Dispersed cells were filtered through a 630 μm diameter Nylon mesh (Tetko, Elmsford, N.Y.) into a fresh 15 ml centrifuge tube. An additional 2 ml of 0.05% LBI solution was used to rinse the first tube and was transferred to the second tube with filtering.
# The dispersed cells were further diluted with approximately 15 ml sterile-filtered Dulbecco's modified Eagle medium (GIBCO), supplemented with 2.5% fetal calf serum (GIBCO), 3% horse serum (GIBCO), 10% fresh rat serum (stored on ice for no longer than 1 h) from the pituitary donors, 1% MEM non-essential amino acids (GIBCO), gentamycin ([…]; Sigma) and nystatin (10,000 U/ml; GIBCO). The cells were poured into a 50 ml round-bottomed glass extraction flask with a large diameter opening, counted with a hemacytometer (approximately 2,000,000 cells per pituitary), and randomly plated at a density of 200,000 cells per well (Co-star cluster 24; Rochester Scientific Co., Rochester, N.Y.). The plated cells were maintained in Dulbecco's medium in a humidified atmosphere of 95% air and 5% CO2 at 37° C. for 4 days to 5 days.
# In preparation for a hormone challenge, the cells were washed 3 times with medium 199 (GIBCO) to remove old medium and floating cells. […] After 3 h at 37° C. in an air/carbon dioxide atmosphere (95/5%), the medium was removed and stored at -20 ° C. until assayed for hormone content. IC50 's (a concentration that provides half-maximal inhibition of GH release) were calculated using the computer program SigmaPlot (Jandel Scientific, San Rafael, Calif.).
# [2] = target: T1, type 2 somatostatin receptors (SSTR2) (Homo sapiens, UniProt P30874); assay: Somatostatin receptor binding assay on IMR32 membranes
# T1 construct: IMR32 membrane fractions (100-150 μg) were incubated with 0.015 pM; host or cells: IMR32 human neuroblastoma cells (membrane fractions)
# Procedure: The IMR32 cells were maintained in minimal essential media (MEM) supplemented with 15% heat-inactivated fetal bovine serum, 100 U/ml penicillin, 100 μg/ml streptomycin and nonessential amino acids. Cultured cells were harvested in a buffer containing 20 mM HEPES, 2 mM MgCl2, 5 mM EDTA, 1 mM 2-mercaptoethanol, 150 mM NaCl, and 50 μg/ml phenylmethylsulfonylfluoride (PMSF), (pH 7.4) at a concentration of 1×10^6 cells/ml. Cell membranes were prepared according to the method of O'Dorisio, M. S. et al., Cell Growth and Differentiation, 5:1-8, 1994. Membrane fractions were prepared by differential centrifugation and the membranes resuspended in buffer and stored at -80° for receptor binding studies.
# Binding assays were carried out according to the method of O'Dorisio et al., supra. […] The reaction was terminated by centrifugation at 11,000×G for 3 minutes. Supernatant fluid was aspirated and the radioactivity of bound ligand in the pellet quantified in a gamma counter.
# Specific binding was calculated using the difference between total and non-specific (in the presence of 1 μM unlabeled ligand) binding. Equilibrium dissociation constants (KD) and the maximal number of binding sites (Bmax) were determined using seven concentrations of unlabeled peptide in a competitive binding curve and calculated using a computerized nonlinear least squares fit to the mass-law equation of Munson and Rodbard, Munson, P. J. et al., Anal. Biochem., 107:220-239, 1980, as modified by McPhearson, G. A., J. of Pharm. Meth., 14:213-228, 1985.
# [3] = Stability of 131I-labeled peptides stored in saline; type: physicochemical; conditions: one week after labeling
# Procedure: All specimen activity (μCi) was measured in a dose calibrator at least 30 minutes prior to intravenous injection. Radiolabeled peptide was injected through a peripheral arm vein in a free-flowing intravenous line. One week after labeling, only 30% of the ^131 I-labeled multi-tyrosinated peptides WOC-3A and WOC-3B compounds stored in saline had degraded.
# [4] = tested on: bronchioloalveolar carcinoma of the lung (somatostatin receptor-expressing tumors); assay: Biodistribution and dosimetry of 131I WOC-3A (1.6 mCi i.v.) in a human patient; type: in vivo; conditions: extrapolated for a dose of 1,500 mCi
# Procedure: A batch of ^131 I WOC-3A (1.6 mCi) was made (Iso-Tex Corporation, Friendswood, TX) and its sterility and pyrogenicity tested at Iso-Tex. Radiolabeled WOC-3A was injected intravenously and the pharmacokinetics and biodistribution of the radiolabeled compound were calculated. The tumor/normal tissue ratio of distribution of radiolabeled WOC-3A was approximately 3:1 to 6:1.
# Following injection of 1.6 mCi of ^131 I WOC-3A, the patient underwent three days of nuclear medicine scanning using a 3-headed SPECT camera as well as an ADAC camera. In addition, whole body radiation counts were obtained to calculate whole-body loss of radioisotope over the three day period. […] Bone marrow would receive in excess of 450 rads (a dose requiring bone marrow transplantation in 50% of patients). Thus, in preparation for bone marrow transplantation, the patient underwent bone marrow harvest to provide cells for reinfusion after WOC-3 therapy and sufficient clearance of the radiolabeled analog from the patient's circulation.
# [5] = tested on: bronchioloalveolar carcinoma of the lung; assay: Subcutaneous octreotide acetate therapy in a human patient; conditions: 2 mg/day subcutaneous
# Text: The patient is a person diagnosed with bronchioloalveolar carcinoma of the lung approximately four years ago. […] underwent a right upperlobectomy and intensive chemotherapy with multiple agents.
# [6] = IMR32 membranes, competitive binding, 17° C., 30 minutes
# T1 sequence (P30874 whole entry): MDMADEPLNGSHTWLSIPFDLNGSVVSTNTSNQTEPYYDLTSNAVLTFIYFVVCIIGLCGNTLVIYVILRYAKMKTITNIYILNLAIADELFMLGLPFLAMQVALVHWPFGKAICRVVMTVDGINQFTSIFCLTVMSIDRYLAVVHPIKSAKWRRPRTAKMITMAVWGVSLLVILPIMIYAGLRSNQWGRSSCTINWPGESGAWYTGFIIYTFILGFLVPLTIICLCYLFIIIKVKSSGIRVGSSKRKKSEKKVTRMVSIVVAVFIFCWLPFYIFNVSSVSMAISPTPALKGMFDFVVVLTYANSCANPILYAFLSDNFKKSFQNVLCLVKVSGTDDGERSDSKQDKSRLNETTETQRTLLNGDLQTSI
Structure (SMILES),"Kd [2, 6]",IC50 [1],further results
"CC(C)[C@@H]1NC(=O)[C@H](CCCCN)NC(=O)[C@@H](Cc2c[nH]c3ccccc23)NC(=O)[C@H](Cc2ccc(O)cc2)NC(=O)[C@@H](NC(=O)[C@H](N)Cc2ccc3ccccc3c2)CSSC[C@@H](C(=O)N[C@H](C(N)=O)[C@@H](C)O)NC1=O [LANREOTIDE ®, Dβ-Nal-Cys-Tyr-D-Trp-Lys-Val-Cys-Thr(NH2), reference compound]",–,0.4 ± 0.1 nM,Kd [2]: 1.05 ± 0.51 nM
"C[C@H](N)C(=O)NCC(=O)N[C@H]1CSSC[C@@H](C(=O)O)NC(=O)[C@H](CO)NC(=O)[C@H]([C@@H](C)O)NC(=O)[C@H](Cc2ccccc2)NC(=O)[C@H]([C@@H](C)O)NC(=O)[C@H](CCCCN)NC(=O)[C@H](Cc2c[nH]c3ccccc23)NC(=O)[C@H](Cc2ccccc2)NC(=O)[C@H](Cc2ccccc2)NC(=O)[C@H](CC(N)=O)NC(=O)[C@H](CCCCN)NC1=O [Somatostatin, reference compound]",–,0.46 ± 0.04 nM,–
"CC(C)[C@@H]1NC(=O)[C@H](CCCCN)NC(=O)[C@@H](Cc2c[nH]c3ccccc23)NC(=O)[C@H](Cc2ccc(O)cc2)NC(=O)[C@@H](NC(=O)[C@@H](Cc2ccc(O)cc2)NC(=O)[C@H](C)NC(=O)[C@@H](N)Cc2ccc(O)cc2)CSSC[C@@H](C(=O)N[C@H](C(N)=O)[C@@H](C)O)NC1=O [WOC-3A, cyclic(tyrosine-alanine-D-tyrosine-cysteine-tyrosine-D-tryptophan-lysine-v aline-cysteine-threonine)] (H-YA[dY]CY[dW]KVCT-NH2; disulfide 4-9)",–,0.96 ± 0.01 nM,"Displacement of bound radioactivity by unlabeled ligand ([2]; 10,000-fold excess of unlabeled WOC-3A or native somatostatin): no radioactivity was displaced; Total binding of radiolabeled analog to IMR-32 membranes ([2]; radiolabeled analog): high levels of total binding; Fraction of labeled peptide degraded [3]: 30%; Radiation dose to bone marrow [4]: > 450 rads"
"CC(C)[C@@H]1NC(=O)[C@H](CCCCN)NC(=O)[C@@H](Cc2c[nH]c3ccccc23)NC(=O)[C@H](Cc2ccc(O)cc2)NC(=O)[C@@H](NC(=O)[C@@H](Cc2ccc(O)cc2)NC(=O)[C@@H](N)Cc2ccc(O)cc2)CSSC[C@@H](C(=O)N[C@H](C(N)=O)[C@@H](C)O)NC1=O [WOC-3B, cyclic(tyrosine-D-tyrosine-cysteine-tyrosine-D-tryptophan-lysine-valine-cy steine-threonine)] (H-Y[dY]CY[dW]KVCT-NH2; disulfide 3-8)",–,0.66 ± 0.06 nM,Fraction of labeled peptide degraded [3]: 30%
"C[C@@H](O)[C@H](NC(=O)[C@@H]1CSSC[C@H](NC(=O)[C@@H](Cc2ccc(O)cc2)NC(=O)[C@H](Cc2ccc(O)cc2)NC(=O)[C@H](Cc2ccc(O)cc2)NC(=O)[C@H](N)Cc2ccc(O)cc2)C(=O)N[C@@H](Cc2ccccc2)C(=O)N[C@H](Cc2c[nH]c3ccccc23)C(=O)N[C@@H](CCCCN)C(=O)N[C@@H]([C@@H](C)O)C(=O)N1)C(N)=O [WOC-4, cyclic(D-tyrosine-tyrosine-tyrosine-D-tyrosine-cysteine-phenylalanine-D-tr yptophan-lysine-threonine-cysteine-threonine)] (H-[dY]YY[dY]CF[dW]KTCT-NH2; disulfide 5-10)",1 nM,–,–
"C[C@@H](O)[C@H](NC(=O)[C@@H]1CSSC[C@H](NC(=O)[C@@H](Cc2ccccc2)NC(=O)[C@H](CCCCNC(=O)[C@H](CCCCNC(=O)[C@H](CCCCNC(=O)[C@H](N)Cc2ccc(O)cc2)NC(=O)[C@H](N)Cc2ccc(O)cc2)NC(=O)[C@H](CCCCNC(=O)[C@H](N)Cc2ccc(O)cc2)NC(=O)[C@H](N)Cc2ccc(O)cc2)NC(=O)[C@H](CCCCNC(=O)[C@H](CCCCNC(=O)[C@H](N)Cc2ccc(O)cc2)NC(=O)[C@H](N)Cc2ccc(O)cc2)NC(=O)[C@H](CCCCNC(=O)[C@H](N)Cc2ccc(O)cc2)NC(=O)[C@H](N)Cc2ccc(O)cc2)C(=O)N[C@@H](Cc2ccccc2)C(=O)N[C@H](Cc2c[nH]c3ccccc23)C(=O)N[C@@H](CCCCN)C(=O)N[C@@H]([C@@H](C)O)C(=O)N1)C(N)=O [WOC-8, cyclic[(D-tyrosine)8-(lysine)4-(lysine)2-lysine-cysteine-phenylalanine-D-tryptophan-lysine-threonine-cysteine-threonine]]",–,2.46 ± 0.69 nM,–
"C[C@@H](O)[C@@H]1NC(=O)[C@H](CCCCN)NC(=O)[C@@H](Cc2c[nH]c3ccccc23)NC(=O)[C@H](Cc2ccccc2)NC(=O)[C@@H](NC(=O)[C@H](N)Cc2ccccc2)CSSC[C@@H](C(=O)N[C@H](CO)[C@@H](C)O)NC1=O [octreotide acetate, D-Phe-Cys-Phe-D-Trp-Lys-Thr-Cys-Thr(ol)]",–,–,"Tolerability of therapy [5]: tolerated this therapy well; Decrease in tumor volume ([5]; initial response, tumors later progressed): 25%"

# Second part, led by results:
"Kd [2, 6]",Structure (SMILES),IC50 [1],further results
5.73 ± 0.22 nM,"CC(C)[C@@H]1NC(=O)[C@H](CCCCN)NC(=O)[C@@H](Cc2c[nH]c3ccccc23)NC(=O)[C@H](Cc2ccc(O)cc2)NC(=O)[C@@H](NC(=O)[C@H](N)Cc2ccc(O)cc2)CSSC[C@@H](C(=O)N[C@H](C(N)=O)[C@@H](C)O)NC1=O [WOC-2A, cyclic-(D-tyrosine-cysteine-tyrosine-D-tryptophan-lysine-valine-cysteine-t hreonine-NH2)]",4.84 ± 0.58 nM,–
1.2 nM,"C[C@@H](O)[C@H](NC(=O)[C@@H]1CSSC[C@H](NC(=O)[C@@H](Cc2ccc(O)cc2)NC(=O)[C@@H](N)Cc2ccc(O)cc2)C(=O)N[C@@H](Cc2ccccc2)C(=O)N[C@H](Cc2c[nH]c3ccccc23)C(=O)N[C@@H](CCCCN)C(=O)N[C@@H]([C@@H](C)O)C(=O)N1)C(N)=O [WOC-2B, cyclic-(tyrosine-D-tyrosine-cysteine-phenylalanine-D-tryptophan-lysine-thr eonine-cysteine-threonine-NH2)] (H-Y[dY]CF[dW]KTCT-NH2; disulfide 3-8)",–,–
